Some test systems named below: UACC-257 melanoma; HT29 colon; 786-0 renal; TK-10 renal; CAKI-1 renal; SF-295 CNS; COLO 205 colon; SF-539 CNS; OVCAR-8 ovarian; SW-620 colon.
Holding throughout (assay): NCI anticancer screen, dose series, 48 h

Where “and” joins values, the source holds several entries; their conditions need not be identical. Equal entries are not always repeated.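 In this assay, cells in 96-well plates receive the compound at five concentrations for 48 hours. Endpoints are linearly interpolated between the surrounding concentrations. GI50: concentration for 50% inhibition of growth. TGI denotes the concentration required for complete inhibition of growth.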

In the case of `O=[N+]([O-])c1ccc2c(c1)[O][Sn][O]2`, the GI50 with UACC-257 melanoma is 40.5 mg/L; in the experiment on HT29 colon it was 86 mg/L; with 786-0 renal, 139 mg/L; in the experiment on TK-10 renal it was over 150 mg/L; in the experiment with CAKI-1 renal, 104 mg/L; in the experiment on SF-295 CNS, over 150 mg/L. Also, the GI50 is 62.5 mg/L with COLO 205 colon, 50.1 mg/L in the experiment on SF-539 CNS, 65.7 mg/L with OVCAR-8 ovarian and 114 mg/L with SW-620 colon. For the same compound, the TGI with UACC-257 melanoma, in the experiment on HT29 colon, in the experiment with 786-0 renal, in the experiment with TK-10 renal, in the experiment with CAKI-1 renal and in the experiment on SF-295 CNS was over 150 mg/L in each case. The TGI in the experiment on COLO 205 colon, in the experiment on SF-539 CNS, in the experiment on OVCAR-8 ovarian and with SW-620 colon was over 150 mg/L throughout.
`C[C@]12CC[C@@H]3c4ccc(O)cc4C(O)C[C@H]3[C@@H]1CCC2=O` (some centres not stated): the GI50 in the experiment on UACC-257 melanoma is over 100 µM; in the experiment on HT29 colon, 46.7 µM; with 786-0 renal it was over 100 µM; in the experiment on TK-10 renal, over 100 µM; with CAKI-1 renal it was over 100 µM; in the experiment with SF-295 CNS, over 100 µM. The GI50 in the experiment on COLO 205 colon, in the experiment on SF-539 CNS, in the experiment with OVCAR-8 ovarian and with SW-620 colon was over 100 µM throughout. Besides, the TGI in the experiment with UACC-257 melanoma, in the experiment with HT29 colon, with 786-0 renal, with TK-10 renal, in the experiment with CAKI-1 renal and in the experiment on SF-295 CNS was over 100 µM each time. Further, the TGI with COLO 205 colon, in the experiment on SF-539 CNS, with OVCAR-8 ovarian and in the experiment on SW-620 colon was over 100 µM each time.
Take `CCC(c1cccc(O)c1)C(CC)c1cccc(O)c1` (configuration not stated): the GI50 was 11.5 µM in the experiment on UACC-257 melanoma; 1.86 µM in the experiment with HT29 colon; 5.68 µM in the experiment on 786-0 renal; 2.93 µM in the experiment on TK-10 renal; 11.9 µM in the experiment on CAKI-1 renal; 3.99 µM in the experiment on SF-295 CNS. Further, the GI50 in the experiment with COLO 205 colon was 2.05 µM; with SF-539 CNS, 1.23 µM; in the experiment on OVCAR-8 ovarian it was 12.8 µM; in the experiment on SW-620 colon, 4.44 µM. Moreover, the TGI in the experiment on UACC-257 melanoma was 26.4 µM; with HT29 colon it was 11.2 µM; in the experiment with 786-0 renal, 18.3 µM; in the experiment on TK-10 renal it was 20.4 µM; with CAKI-1 renal it was 33 µM; in the experiment on SF-295 CNS, 19.7 µM. Further, the TGI in the experiment on COLO 205 colon is 5.41 µM; with SF-539 CNS, 4.72 µM; in the experiment on OVCAR-8 ovarian, 35.2 µM; with SW-620 colon it was 16.4 µM.
Regarding `CN1C(=O)C(Cl)(C(Cl)(Cl)S(=O)(=O)O)C(=O)c2ccccc21` (configuration not stated), the TGI in the experiment with UACC-257 melanoma is over 100 µM; with HT29 colon, 73 µM; with 786-0 renal, over 100 µM; with TK-10 renal, over 100 µM; in the experiment on CAKI-1 renal, over 100 µM; in the experiment with SF-295 CNS, over 100 µM. Further, the TGI in the experiment on COLO 205 colon, with SF-539 CNS, with OVCAR-8 ovarian and in the experiment with SW-620 colon was over 100 µM throughout.
With `O=C1CC(=O)OC(c2ccc([N+](=O)[O-])cc2)O1`, the GI50 was 1.66 µM with UACC-257 melanoma; 1.9 µM in the experiment on HT29 colon; 1.81 µM with 786-0 renal; 1.92 µM in the experiment with TK-10 renal; 1.44 µM in the experiment on CAKI-1 renal; 4.85 µM in the experiment on SF-295 CNS. For the same compound, the GI50 was 1.79 µM in the experiment with COLO 205 colon, 1.98 µM in the experiment on SF-539 CNS, 2.42 µM in the experiment with OVCAR-8 ovarian and 1.68 µM with SW-620 colon. Further, the TGI with UACC-257 melanoma amounted to 3.36 µM; in the experiment with HT29 colon, 3.73 µM; in the experiment with 786-0 renal, 3.36 µM; in the experiment with TK-10 renal it was 4.53 µM; in the experiment with CAKI-1 renal, 3.24 µM; with SF-295 CNS, 14 µM. Besides, the TGI in the experiment on COLO 205 colon turned out to be 3.41 µM; in the experiment with SF-539 CNS, 4.3 µM; in the experiment on OVCAR-8 ovarian, 7.83 µM; in the experiment with SW-620 colon it was 3.41 µM.
Regarding `COC(=O)CCC1=C(C)/C(=C/c2[nH]c(-c3ccc[nH]3)cc2OC)N=C1C`, the GI50 in the experiment with UACC-257 melanoma was 0.871 µM; with HT29 colon it was 0.267 µM; in the experiment with 786-0 renal it was 0.653 µM; with TK-10 renal, 2.34 µM; with CAKI-1 renal, 0.346 µM; in the experiment with SF-295 CNS, 0.833 µM. Besides, the GI50 is 0.618 µM in the experiment on COLO 205 colon, 1.21 µM with SF-539 CNS, 0.39 µM in the experiment on OVCAR-8 ovarian and 0.333 µM in the experiment on SW-620 colon. The TGI with UACC-257 melanoma stood at 3.97 µM; in the experiment on HT29 colon it was 2.03 µM; in the experiment with 786-0 renal, 3.72 µM; with TK-10 renal it was 9.22 µM; with CAKI-1 renal it was 3.15 µM; in the experiment on SF-295 CNS, 3.64 µM. Also, the TGI turned out to be 1.72 µM in the experiment with COLO 205 colon, 5.32 µM with SF-539 CNS, 6.69 µM in the experiment on OVCAR-8 ovarian and 1.67 µM with SW-620 colon.
For `CC[C@@]1(O)C(=O)OCc2c1cc1n(c2=O)Cc2cc3cc(N)ccc3nc2-1`, the GI50 with UACC-257 melanoma was 0.0441 µM and 0.0423 µM; in the experiment with HT29 colon, 0.0176 µM and 0.0225 µM; with 786-0 renal it was 0.0119 µM; in the experiment with TK-10 renal it was 0.385 µM and 0.169 µM; with CAKI-1 renal, 0.00361 µM and 0.026 µM; in the experiment on SF-295 CNS it was 0.00207 µM. Besides, the GI50 in the experiment with COLO 205 colon is 0.0618 µM and 0.102 µM; in the experiment on OVCAR-8 ovarian, 0.0218 µM; with SW-620 colon, 0.0113 µM and < 0.031 µM. Moreover, the TGI in the experiment on UACC-257 melanoma is 0.642 µM and 0.375 µM; in the experiment on 786-0 renal it was 0.208 µM and 0.027 µM; with CAKI-1 renal, 1.62 µM and 1.21 µM; in the experiment with SF-295 CNS it was 0.0717 µM and 0.055 µM; in the experiment with COLO 205 colon, 2.86 µM and 1.26 µM; in the experiment on SF-539 CNS, 0.0398 µM. In addition, the TGI in the experiment with OVCAR-8 ovarian was 0.412 µM and 0.198 µM; in the experiment on SW-620 colon it was 5.06 µM.
In the case of `Cc1ccc(S(=O)(=O)N=Nc2c(O)[nH]c3c(Cl)cc(Cl)cc23)cc1`, the TGI in the experiment on UACC-257 melanoma, in the experiment on HT29 colon, in the experiment with 786-0 renal, with TK-10 renal, in the experiment with CAKI-1 renal and in the experiment with SF-295 CNS was over 100 µM throughout. Also, the TGI in the experiment on COLO 205 colon, in the experiment with SF-539 CNS, in the experiment on OVCAR-8 ovarian and in the experiment with SW-620 colon was over 100 µM throughout.

Source of the values: PubChem BioAssay (NCI).
